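Grown in 96-well plates, cells were treated for 48 hours with each compound at five concentrations. Insufficient inhibition: endpoint recorded as highest concentration tested. GI50 = concentration required for 50% inhibition of growth. TGI denotes the concentration required for complete inhibition of growth.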 Some results are limits rather than exact numbers.

Common to all, as to test: NCI anticancer screen, dose series, 48 h
The test system of experiment [1] is TK-10 renal.
Experiment [2] concerns DU-145 prostate.
Experiment [3] relates to SK-MEL-2 melanoma.
For experiment [4], the system named is UACC-62 melanoma.
In experiment [5] the test system is COLO 205 colon.
Experiment [6] concerns MDA-MB-435.
Experiment [7] has as its system LOX IMVI melanoma.
For experiment [8], the system named is HOP-62 NSCLC.
The test system of experiment [9] is MALME-3M melanoma.
The test system of experiment [10] is SR leukemia.

As to `CCC1OC2C(CC=C(C)C)=C3OC(C)(O)C(C)(CC)C(=O)C3=C3OC(=O)C=C1C32` (centres undefined), the TGI was more than 100 µM in experiment [1]; more than 100 µM in [2]; 36.1 µM in experiment [3]; 83.4 µM in [4]; 37 µM in experiment [5]; more than 100 µM in [6]. The compound also yielded a TGI in experiment [7] of 27.3 µM.

Turning to `O=c1cc(NNc2cccc(F)c2)[nH]c(=S)[nH]1`, the TGI in [1], in [2], in experiment [5], in [8], in experiment [6] and in [9] was more than 100 µM throughout. For the same compound, the TGI in experiment [7] and in experiment [10] was more than 100 µM in each case.

For `CCOC(=O)[C@@]12NN=N[C@@H]1[C@H]1CO[C@H](c3ccccc3)N1C2=O`, the TGI was 30.5 µM in experiment [1]; 34.3 µM in [2]; 21.7 µM in experiment [3]; 21.2 µM in [4]; 23.5 µM in [5]; 30.6 µM in experiment [8]. The results for the TGI in experiment [6], in experiment [9] and in [7] were 35.6 µM, 26.8 µM and 4.92 µM, respectively.

For `O=P(Nc1cccc(Cl)c1)(Oc1ccccc1)N(CCCl)CCCl` (centres undefined), the TGI in experiment [1] was 30.6 µM; in experiment [3], 25.6 µM; in experiment [4], 24.4 µM; in experiment [5], 29.3 µM; in experiment [8], 31.1 µM; in experiment [9] it was 28.5 µM. In addition, the TGI in experiment [10] is more than 100 µM.

For the compound `Brc1ccc(C[N+]23CN4CN(CN(C4)C2)C3)cc1`, the TGI in experiment [1] is more than 100 µM; in experiment [4], 30.5 µM; in experiment [5], 69.4 µM; in [8], more than 100 µM; in experiment [9], 71.5 µM; in [7], 48 µM.

As for `O=C(CSc1nnc(-c2ccc(N=Cc3ccc(Cl)cc3)cc2)o1)Nc1cccc([N+](=O)[O-])c1`, the TGI in [1], in [3], in [4], in [5], in experiment [8] and in experiment [9] was more than 100 µM throughout. Further, the TGI in [7] and in experiment [10] was more than 100 µM throughout.

For the compound `COc1ccc(Oc2nc3c(N)cc(C(F)(F)F)cc3nc2-c2ccccc2)cc1`, the TGI in experiment [1] was more than 100 µM; in [3], 25.9 µM; in [4] it was more than 100 µM; in [5], 25.6 µM; in experiment [8] it was 49.5 µM; in experiment [6], more than 100 µM. Moreover, the TGI is 53.6 µM in experiment [7] and more than 100 µM in experiment [10].

Regarding `COc1ccc(/C=C(\C2=NC(=O)CS2)c2nc3ccccc3[nH]2)cc1`, the TGI in experiment [1] was more than 100 µM; in experiment [3], 62.9 µM; in experiment [4], more than 100 µM; in experiment [5], more than 100 µM; in [8] it was more than 100 µM; in experiment [9], more than 100 µM. The TGI in experiment [10] was more than 100 µM.

As for `Cc1cc2nc(CC(C(F)(F)F)C(F)(F)F)oc2cc1C`, the TGI in [1] was 39.7 µM; in experiment [2], 16.4 µM; in [3], 9.85 µM; in [4], 3.64 µM; in experiment [5] it was 4.98 µM; in [8], 17.2 µM. The TGI worked out at 5.64 µM in experiment [6], 9.32 µM in experiment [9] and 1.44 µM in [7].

As for `CCN(CCN(CC)C(=O)NC)C(=O)NC`, the TGI in [1], in experiment [2], in [3], in [4], in experiment [5] and in experiment [8] was more than 100 µM in each case. The TGI in experiment [9], in experiment [7] and in experiment [10] was more than 100 µM each time.

Turning to `COc1ccc(N2C(=O)C3C=CC(n4[nH]c(=O)n(Cc5ccccc5)c4=O)CC3C2=O)cc1` (centres undefined), the TGI in experiment [1], in experiment [3], in experiment [4], in experiment [5], in [8] and in experiment [9] was more than 100 µM each time. Also, in experiment [7], the TGI was more than 100 µM.

In the case of `CCSc1[nH]c(NC(=NC(C)C)NC(=O)c2ccccc2)c(C(N)=O)c1C(N)=O`, the TGI in [1], in experiment [2], in experiment [4], in [5], in experiment [6] and in experiment [9] was more than 10 µM throughout. Besides, the TGI in experiment [7] and in [10] was more than 10 µM throughout.

On to `CN1CCN(Cn2nc(-c3cc(F)c(Cl)cc3Cl)oc2=S)CC1`, for which the GI50 is 39.3 µM in experiment [1]; 41.4 µM in experiment [2]; more than 100 µM in experiment [3]; 21.2 µM in experiment [4]; 23.6 µM in experiment [5]; 40.5 µM in experiment [6]. The GI50 in experiment [9] was 26.4 µM; in [7], 20.3 µM. Besides, the TGI in experiment [1] was more than 100 µM; in [2], more than 100 µM; in experiment [3], more than 100 µM; in experiment [4], 55.2 µM; in [5] it was 51.6 µM; in experiment [6], more than 100 µM. Moreover, the TGI in experiment [9] is 74.1 µM; in [7] it was 45.6 µM.

For `Cc1csc2c(=O)n(COCc3ccccc3)c(=O)[nH]c12`, the TGI in experiment [1], in experiment [2], in experiment [5], in [8], in [6] and in [9] was more than 100 µM throughout. Also, the TGI in experiment [7] and in [10] was more than 100 µM in each case.

As for `Cc1ccc(O)cc1` (tested in a mixture with another compound), the TGI in experiment [1], in experiment [2], in [3], in experiment [4], in [5] and in experiment [8] was more than 100 µM throughout. For the same compound, the TGI in experiment [6], in experiment [9] and in experiment [7] was more than 100 µM in each case.

As for `O=C1[C@H](O)[C@@H]2CCC[C@@]23CCCN13`, the TGI in experiment [1], in experiment [2], in [4], in experiment [5], in experiment [8] and in [6] was more than 100 µM throughout. Further, the TGI in [7] and in experiment [10] was more than 100 µM throughout.

(Values after PubChem BioAssay (NCI).)
